# Tests used:
# [1] = Long-term storage stability of high-purity stannsoporfin at 40° C. and 75% relative humidity; assay type: physicochemical; settings: 40° C./75% RH
# Method: (§1) The long-term stability of the compound was studied under two different storage conditions: 25° C. (+/−2° C.) and 60% relative humidity (+/−5%); and 40° C. (+/−2° C.) and 75% relative humidity (+/−5%). Primary packaging for the compound was a 4-mil polyethylene bag and secondary packaging for the compound was a 4 mil polyethylene bag, stored in an HDPE drum.
# (§2) Table 5 and Table 6 show stability data for the batch described in Table 3, under the 25° C./60% RH and 40° C./75% RH conditions, respectively. Table 7 and Table 8 show stability data for the batch described in Table 4 under the 25° C./60% RH and 40° C./75% RH conditions, respectively. Data for the zero-month time point was taken from the batch release analysis (the zero time point represents the actual date when samples were placed in the stability test chambers). The samples were analyzed at approximately 3 months and approximately 6 months after the samples were placed under the storage conditions.
# [2] = Long-term storage stability of high-purity stannsoporfin at 25° C. and 60% relative humidity; assay type: physicochemical; settings: 25° C./60% RH
# Method: as §1, §2
# [3] = batch of Table 3 (0.840 kg), 0 months
# [4] = batch of Table 3 (0.840 kg), 3 months
# [5] = batch of Table 3 (0.840 kg), 6 months
# [6] = batch of Table 4 (1.364 kg), 0 months
# [7] = batch of Table 4 (1.364 kg), 3 months
# [8] = batch of Table 4 (1.364 kg), 6 months
substance,measurement,setting,value
tin (IV) mesoporphyrin IX dichloride [stannsoporfin],HPLC assay (w/w as is),[1]; [3],100.4%
same,"HPLC assay (w/w, solvent-free anhydrous basis)",[1]; [3],100.7%
same,HPLC purity (impurity peak at RRt retention time 0.72-0.73),[1]; [3],0.06%
same,HPLC purity (total impurities),[1]; [3],03
same,"Water content (Karl Fischer, coulometric)",[1]; [3],Trace <1%
same,HPLC assay (w/w as is),[1]; [4],100.9%
same,"HPLC assay (w/w, solvent-free anhydrous basis)",[1]; [4],101.2%
same,HPLC purity (impurity peak at RRt retention time 0.72-0.73),[1]; [4],<0.05%
same,HPLC purity (total impurities),[1]; [4],0.28
same,"Water content (Karl Fischer, coulometric)",[1]; [4],<1% (0.2%)
same,HPLC assay (w/w as is),[1]; [5],99.6%
same,"HPLC assay (w/w, solvent-free anhydrous basis)",[1]; [5],99.8%
same,HPLC purity (impurity peak at RRt retention time 0.72-0.73),[1]; [5],0.06%
same,HPLC purity (total impurities),[1]; [5],0.26
same,"Water content (Karl Fischer, coulometric)",[1]; [5],<1% (0.1%)
same,HPLC assay (w/w as is),[1]; [6],102.3%
same,"HPLC assay (w/w, solvent-free anhydrous basis)",[1]; [6],102.3%
same,HPLC purity (impurity peak at RRt retention time 0.72-0.73),[1]; [6],0.06%
same,HPLC purity (total impurities),[1]; [6],0.22
same,"Water content (Karl Fischer, coulometric)",[1]; [6],Trace < 1%
same,HPLC assay (w/w as is),[1]; [7],101.0%
same,"HPLC assay (w/w, solvent-free anhydrous basis)",[1]; [7],101.1%
same,HPLC purity (impurity peak at RRt retention time 0.72-0.73),[1]; [7],<0.05%
same,HPLC purity (total impurities),[1]; [7],0.29
same,"Water content (Karl Fischer, coulometric)",[1]; [7],<1% (0.1%)
same,HPLC assay (w/w as is),[1]; [8],97.7%
same,"HPLC assay (w/w, solvent-free anhydrous basis)",[1]; [8],97.8%
same,HPLC purity (impurity peak at RRt retention time 0.72-0.73),[1]; [8],0.06%
same,HPLC purity (total impurities),[1]; [8],0.24
same,"Water content (Karl Fischer, coulometric)",[1]; [8],<1% (0.1%)
same,HPLC assay (w/w as is),[2]; [3],100.4%
same,"HPLC assay (w/w, solvent-free anhydrous basis)",[2]; [3],100.7%
same,HPLC purity (impurity peak at RRt retention time 0.72-0.73),[2]; [3],0.06%
same,HPLC purity (total impurities),[2]; [3],0.3
same,"Water content (Karl Fischer, coulometric)",[2]; [3],Trace < 1%
same,HPLC assay (w/w as is),[2]; [4],99.6%
same,"HPLC assay (w/w, solvent-free anhydrous basis)",[2]; [4],99.8%
same,HPLC purity (impurity peak at RRt retention time 0.72-0.73),[2]; [4],<0.05%
same,HPLC purity (total impurities),[2]; [4],0.22
same,"Water content (Karl Fischer, coulometric)",[2]; [4],<1% (0.1%)
same,HPLC assay (w/w as is),[2]; [5],98.2%
same,"HPLC assay (w/w, solvent-free anhydrous basis)",[2]; [5],98.4%
same,HPLC purity (impurity peak at RRt retention time 0.72-0.73),[2]; [5],0.07%
same,HPLC purity (total impurities),[2]; [5],0.24
same,"Water content (Karl Fischer, coulometric)",[2]; [5],<1% (0.1%)
same,HPLC assay (w/w as is),[2]; [6],102.3%
same,"HPLC assay (w/w, solvent-free anhydrous basis)",[2]; [6],102.3%
same,HPLC parity (total impurities),[2]; [6],0.22
same,HPLC purity (impurity peak at RRt retention time 0.72-0.73),[2]; [6],0.06%
same,"Water content (Karl Fischer, coulometric)",[2]; [6],Trace < 1%
same,HPLC assay (w/w as is),[2]; [7],102.0%
same,"HPLC assay (w/w, solvent-free anhydrous basis)",[2]; [7],102.1%
same,HPLC parity (total impurities),[2]; [7],0.29
same,HPLC purity (impurity peak at RRt retention time 0.72-0.73),[2]; [7],0.05%
same,"Water content (Karl Fischer, coulometric)",[2]; [7],<1% (0.1%)
same,HPLC assay (w/w as is),[2]; [8],98.4%
same,"HPLC assay (w/w, solvent-free anhydrous basis)",[2]; [8],98.5%
same,HPLC parity (total impurities),[2]; [8],0.19
same,HPLC purity (impurity peak at RRt retention time 0.72-0.73),[2]; [8],0.05%
same,"Water content (Karl Fischer, coulometric)",[2]; [8],<1% (0.1%)

# From patent US11078220B2, “High-purity large-scale preparation of stannsoporfin” (Mallinckrodt Hospital Products IP Limited, priority 2006, dated 2021)
